Tests used:
[1] = system: BHK21; assay: Toxicity of NAC-MTN vs CD-MTN and MTN, MTT (Example 9, EX042105); format: cell-based, hamster
Description: FIG. 4. […] The relative toxicity of NAC-MTN was compared with MTN and CD-MTN in four cell lines, MCF7(breast cancer), COS7green monkey kidney (SV40 transformed), 3T3 (mouse fibroblast), and BHK21(hamster kidney). Cells were treated with identical amounts of MTN formulated as either NAC-MTN, MTN only, or poly-beta-cyclodextrin-sulfylbutylether(CD-MTN). After an incubation period, cell viability was assayed with MTT assay. The differences in toxicity between NAC-MTN and MTN or NAC-MTN and CD-MTN are shown as % difference. Greater percentage difference correlates to more reduction in relative NAC-MTN toxicity.
MCF7, COS7, 3T3, and BHK21 cells were plated out in duplicate rows of equivalent cell density in 100ul final volume. Initial cell densities were 2000 cells/well.
Preparing NAC-MTN, CD-MTN, and MTN only. Combined 180 ul of 0.05 mg/ml MTN with […] 0.1 mg/ml herring sperm genomic DNA (HSGDNA, Promega), 1500 ul of 2× DMEM media containing 20% FBS to give 3.0 ml final volume and 12% final drug loading in the dsDNA. For MTN only, 180 ul of MTN was combined with 1320 ul H2O and 1500 ul 2× DMEM. […]
Aspirated media in plate and replaced with 50 ul of 0.5 mg/ml MTT in 1× media, incubated 3 hours, aspirated, air dried 5 min and dissolved in 100 ul of isopropyl, read OD at A570. […]

[2] = In vivo MTN distribution in organs and recovery in urine after multiple i.v. dosing (Example 16, EX102205)
Description: Differential targeting and distribution of NAC-MTN or MTN in major organs of the mouse. NAC-MTN or MTN was administered intravenously to mice and detected in major organs after 24 hours. […] Total MTN in tissues was quantified by MTN fluorescence, normalized against total tissue weight, and reported as MTN mg/g tissue.
Mice n=2, were injected i.v. with repeated dose of either NAC-MTN or MTN alone. MTN administered was the same for each mouse.
A 0.4 ml volume of each NAC-MTN or MTN formulation was prepared for injection in HBSS or H2O (Hanks Buffered Saline, Sigma-Aldrich) as indicated below. For NAC-MTN injection, 45 ul 10 mg/ml MTN was diluted first in 325 ul of HBSS solution, then 180 ul of herring sperm DNA (HSDNA, 50 mg/ml stock neutralized, 0.2 um filtered) was added to give a turquoise blue color. […] In MTN injection, 45 ul 10 mg/ml MTN was diluted in 385 ul of H2O.
On day 1, white mice, n=2, 24 g each, were tail vein injected by a micro-catheter with 0.16 ml at 14:50 or 0.15 ml at 15:30, respectively of either NAC-MTN or MTN. A second injection was followed at 17:00 and 16:50 of 0.2 ml each of NAC-MTN or MTN. To quantify total MTN retained, mouse urine was collected after 1st and 2nd injection. Total MTN was assayed in mouse urine immediately after 1st injection and second injection by reading MTN fluorescence 620/680 s=50 of a 0.2 ml sample in a styrene well, bottom read. […] A third dose of 0.2 ml was given the next morning, 22 hours after 1st injection (day 2), of either NAC-MTN or MTN. […] Twenty four hours after first injection (day 2), mice were sacrificed and MTN assayed in major organs. The liver, kidneys, heart, and lung were homogenized at high speed 50,000 rpm, and treated with 1% SDS (sodium dodecyl sulfate). The homogenates were frozen twice and centrifuged for 30 minutes at 14000 rcf.

[3] = system: COS7; assay: Effect of plating time on uptake of NAC-MTN and MTN, fluorescence (Example 11); format: cell-based, green monkey
Description: The effect of plating time on the differential rates of uptake between NAC-MTN and MTN were assayed in cells treated <1 hour and 24 hours after plating.
On day 1, MCF7, COS7, 3T3, and BHK21 cells were plated out in a standard tissue culture plate. After incubation of 20 minutes samples were added to cells in rows A, C, E, and G. Cells were incubated at 37C in a standard atmosphere of 5%CO2.
On day 2, samples were added to rows D, F, and H and the fluorescence was obtained EX620/EM680 S=80. Samples were removed from A,C,E and G, replaced with media and fluorescence read again. On day 2 observed significant drug toxicity in cells of rows A,C, E, G. Sample addition was postponed in row B since MCF7 were not yet confluent.
On day 3, added samples to cells in row B containing confluent MCF7's, removed samples from rows D, F, and H replaced with media and read fluorescence.
Fluorescence data from cells taken after removal of media was used to quantitate total MTN retained in the cells. Fluorescence data were converted to mg/ml MTN using a standard curve prepared with free MTN or NAC-MTN.
The percentage difference in fluorescence between cells treated with NAC-MTN or MTN alone was used to compare relative drug uptake.
The MTN fluorescence ratios were obtained by dividing MTN fluorescence of cells incubated for 24 hours by fluorescence of cells incubated 30 minutes. […] The uptake in BHK21 was roughly equivalent for NAC-MTN regardless of plate adherence, however it should be noted that BHK21 adhere very rapidly to the plate.
Fluorescence data were converted to micromolar drug concentrations (uM MTN) using a standard curve for either nucleic acid bound or unbound drug, and drug uptake ratios were obtained by dividing the t(24 hour)/t(30 min.). The ratios of absolute drug concentration per well show more dramatic differences in uptake as shown below.

[4] = three i.v. doses, 24 hours after first injection

O=C1c2c(O)ccc(O)c2C(=O)c2c(NCCNCCO)ccc(NCCNCCO)c21 [MTN, mitoxantrone]
% tox. relative to media only ([1]; 2 uM final MTN, MTT 48 hours after adding samples): 51.76% | toxicity (est.) ([1]; after 20-24 hour incubation with MTN, 2 uM): ~50% | MTN % dose recov. (urine) ([2]; Collect Time 0-2 hr): 2.9% | MTN Recov. (urine) ([2]; Collect Time 0-2 hr, dose 0.18 mg (NAC-MTN) or 0.17 mg (MTN) at 0 hr): 0.0049 mg | MTN % dose recov. (urine) ([2]; Collect Time 3-12 hr): 12% | MTN Recov. (urine) ([2]; Collect Time 3-12 hr, dose 0.225 mg at 3 hr): 0.0279 mg | MTN % dose recov. (urine) ([2]; Collect Time 12-24 hr): 13% | MTN Recov. (urine) ([2]; Collect Time 12-24 hr, dose 0.225 mg at 22 hr): 0.0297 mg | MTN in Heart [2, 4]: 0.033 mg/g tissue | MTN in Kidney [2, 4]: 0.26 mg/g tissue | MTN in Liver [2, 4]: 0.077 mg/g tissue | MTN in Lung [2, 4]: 0.027 mg/g tissue | MTN in Kidney ([2]; three i.v. doses, 24 hours after first injection, listed as MTN only): 0.261 mg/g tissue | MTN FLUOR Ratio of t(24)/t(<1) [3]: 0.70 | FLUOR (MTN fluorescence in cells) ([3]; cells treated 24 hour after plating): 15289 | FLUOR (MTN fluorescence in cells) ([3]; cells treated <1 hour after plating): 13814 | Ratio uM MTN of t(24)/t(<1) ([3]; from standard curve for bound or unbound drug): 1.2
